According to US20060211072A1, “Process, composition and kit for providing a stable whole blood calibrator/control” (Streck, Inc., priority 2005, published 2006):

Columns and labels:
[1] = test system: glycolysis in red blood cells; assay: YSI glucose recovery of red blood cells treated with glyceraldehyde, washed and recombined with plasma and glucose; format: cell-based; conditions: RBCs treated with 20, 35 and 50 mM for 72 hours at 2-10 C; after 34 days (FIG. 6)
Procedure: FIG. 6 illustrates the YSI 2300 (reference analyzer) glucose concentration (mg/dL) of blood specimens at various concentrations of D,L glyceraldehyde respectively over 4 weeks at about 2° C. to about 10° C., wherein the control is untreated blood sample. Red blood cells were treated, washed and recombined with plasma and glucose.
RBC Treatment w/ Glyceraldehyde & Subsequent Removal
• 1) Employ fresh whole blood collected in standard anticoagulant (i.e. EDTA, heparin, sodium citrate) from a healthy adult population. Alternative blood sources may include bovine, avian, porcine, equine, goat, or alligator. • 2) Allow sufficient time for the natural enzymatic breakdown of glucose to occur (i.e. glycolysis). Deplete glucose concentration to less than about 20 mg/dl. Preferred storage at 2°-30° C. • 3) Separate RBC cellular component from plasma fraction via gravity settling and or centrifugation. If desired, the removed plasma fraction may be retained for reintroduction. • 4) Wash RBC cellular component with isotonic phosphate buffered saline solution (3×). Exchange diluent via centrifugation is preferred (15 minutes @ 1500 rpm (650×g). • 5) Adjust RBC concentration to approximately 4.0×10^6/mm^3±0.25×10^6/mm^3. […]

[2] = test system: glycolysis in whole blood; assay: YSI glucose concentration over time in whole blood specimens with D,L glyceraldehyde added; format: cell-based
Procedure: FIG. 4 illustrates the YSI glucose concentration (mg/dL) of blood specimens containing EDTA at various final concentrations of a mixture of D,L glyceraldehydes at 0.0, 1.0, 5.0, 10.0 and 20.0 mM, obtained over 4 weeks of real time testing at about 2° C. to about 10° C.;
FIG. 5 illustrates the YSI 2300 (reference analyzer) glucose concentration (mg/dL) of blood specimens treated at various concentrations of D,L glyceraldehyde over 3 weeks at about 2° C. to about 10° C., wherein the control is an untreated blood sample;
In one method, a sample containing a cellular component, (i.e. RBCs, WBCs) is collected into a microfuge or vacuum tube, e.g. […]®, (such as supplied by Becton, Dickinson and Company, Franklin Lakes, N.J.). The initial concentration of glucose in the sample can be 50 […].
The vacuum tube may contain any appropriate anticoagulant agent known to one of ordinary skill, including oxalate, EDTA, citrate, heparin or combination thereof, to form a suspension. If used, the anticoagulant may be added together simultaneously, or sequentially, to the sample.
The resulting suspension is incubated at about 2° C. to about 30° C. and allowed to undergo glycolysis until the glucose level is less than about 20 mg/dL. […]

[3] = test system: glycolysis in whole blood; conditions: final concentration about 0.9 to 20 mM in blood sample; testing within 16 hours; cited from earlier work

Row | SMILES | loss in glucose recovery [1] [%] | YSI glucose concentration loss ([2]; 20.0 mM D,L glyceraldehyde in EDTA, at 4 weeks, about 2-10 C (FIG. 4)) | YSI glucose concentration loss ([2]; 30.0 mM D,L glyceraldehyde in EDTA, glucose burned down then added back, at 3 weeks, about 2-10 C (FIG. 5)) | glucose loss [3]
1 | O=CC(O)CO (racemic) [D,L glyceraldehyde, 2,3-dihydroxypropanal] | < 5 | less than 10% | less than 3.5% | 
2 | O=CC(O)CO (stereo not shown) [glyceraldehyde, 2,3-dihydroxypropanal] |  |  |  | negligible glucose loss
